{"source": "patent US20100062464A1", "about": "“OXIDATIVE CHROMOGENIC COMPOUND OR SALT THEREOF AND PRODUCTION METHOD THEREOF, AND REAGENT COMPOSITION AND TEST INSTRUMENT USING THE SAME” (Terumo Kabushiki Kaisha, priority 2007, published 2010)", "key": {"[1]": {"assay": "Residual ratio of coupler in test piece after thermal acceleration, HPLC (Example 9)", "type": "physicochemical", "conditions": "60° C., 1 hour, oven under vacuum; relative to test piece before thermal acceleration; HPLC 254 nm; FIG. 5", "method": "Using a coating liquid having a composition shown in the following Table 6, a polyether sulfone membrane (membrane thickness: 130 μm) manufactured by Terumo Corporation was coated by Kiss-Coat method, and dried for 18 hours at 37° C. Then, the membrane was punched out to give a circle of φ6 mm as a test piece.\nThe test piece was placed in an oven under vacuum at 60° C. for 1 hour to be subjected to thermal acceleration. Then, the test piece was subjected to ultrasonic treatment for 10 minutes using 1 ml of an aqueous 60% acetonitrile solution, and extracted. The amount of reagent in the resultant extract was determined by HPLC under such conditions as of eluent: 60% of acetonitrile/50 mM of phosphate buffer (pH 7.5), eluent flow rate: 1 mL/minute, column temperature: 40° C., column: Hydrosphere C18 250×4.6 mm (manufactured by YMC Co., Ltd.), measuring wavelength: 254 nm, and injection volume: 20 μL. According to this method, the residual ratios of 4-AA and CP2 contained in the test piece after thermal acceleration were respectively compared with those of the test pieces before thermal acceleration. It is noted from the results shown in FIG. 5 that the residual ratio of 4-AA is not more than 70%, while the residual ratio of CP2 is approximately 100%. […]"}, "[2]": {"assay": "Maximum concentration of coating liquid for measuring glucose (solubility of coupler)", "method": "As an example of a coating liquid composition for measuring glucose, an experiment was conducted to determine a maximum concentration of a coating liquid.\nBasic Composition (in 100 mL Water)"}, "[3]": {"assay": "Time-dependent change in reflection-absorbance of test piece (Example 7)", "conditions": "test piece with MAOS, succinate buffer pH 5.0; human blood, hematocrit 40%, 400 mg/dL blood glucose; FIG. 3", "method": "Using a coating liquid having a composition shown in the following Table 5, a polyether sulfone membrane (membrane thickness: 130 μm) manufactured by Terumo Corporation was coated by Kiss-Coat method, and dried for 18 hours at 37° C. Then, the membrane was cut to give a 1-cm square as a test piece.\nThe evaluation using blood was conducted by fixing the test piece in a reflectance spectrophotometer, adding 1 μL of specimen dropwise onto the test membrane from above, and measuring reflection-absorbance continuously or at the predetermined time.\nThe time-dependent changes in the reflection-absorbance was measured using as a coupler compound 4-amino antyprine (4-AA), CP1 or CP2, the test piece prepared by the above method, and human blood adjusted to 40% of hematocrit level and 400 mg/dL of blood glucose level as specimen. It is noted from the results shown in FIG. 3 that 15 seconds was required for reflection-absorbance to become steady when using 4-AA, a conventional coupler, while less than 5 seconds was required for reflection-absorbance to become steady when using CP1, and particularly when using CP2, reflection-absorbance reached peak within only about 3 seconds. That is, it was observed that a measuring time was able to be shortened by using the reagent composition of the present invention."}}}
{"smiles": "Cc1c(N)c(=O)n(-c2ccccc2)n1C", "note": "[4-AA, 4-aminoantipyrine, reference compound]", "values": [{"measurement": "Residual ratio in test piece after thermal acceleration", "setting": "[1]", "value": "not more than 70%"}, {"measurement": "Solubility of coupler", "setting": "[2]; how many times the amounts of all reagents of the basic composition (100 mL water, TOOS, Triton X-100, citrate pH 5.0) can be increased and still give a uniform solution, coupler equimolar to 4-AA", "value": 5, "unit": "times by volume"}, {"measurement": "Time required for reflection-absorbance to become steady / reach peak", "setting": "[3]", "value": 15, "unit": "s"}]}
{"smiles": "Cc1c(N)c(=O)n(-c2ccc(C(=O)O)cc2)n1C", "note": "[CP1, 4-amino-1-(4-carboxyphenyl)-2,3-dimethyl-5-pyrazolone]", "values": [{"measurement": "Solubility as compared with 4-aminoantipyrine", "setting": "[2]", "value": "high solubility"}, {"measurement": "Solubility of coupler", "setting": "[2]; pH 5", "value": 8, "unit": "times by volume"}, {"measurement": "Time required for reflection-absorbance to become steady / reach peak", "setting": "[3]", "value": "less than 5 seconds"}]}
{"smiles": "Cc1c(N)c(=O)n(-c2ccc(S(=O)(=O)O)cc2)n1C", "note": "[CP2, 4-amino-1-(4-sulfophenyl)-2,3-dimethyl-5-pyrazolone]", "values": [{"measurement": "Residual ratio in test piece after thermal acceleration", "setting": "[1]", "value": "approximately 100%"}, {"measurement": "Solubility as compared with 4-aminoantipyrine", "setting": "[2]", "value": "high solubility"}, {"measurement": "Solubility of coupler", "setting": "[2]; pH 5", "value": 10, "unit": "times by volume"}, {"measurement": "Time required for reflection-absorbance to become steady / reach peak", "setting": "[3]", "value": "about 3 seconds"}]}
{"smiles": "Cc1c(N)c(=O)n(-c2cccc(S(=O)(=O)O)c2)n1C", "note": "[CP6, 4-amino-1-(3-sulfophenyl)-2,3-dimethyl-5-pyrazolone]", "values": [{"measurement": "Solubility as compared with 4-aminoantipyrine", "setting": "[2]", "value": "high solubility"}, {"measurement": "Solubility of coupler", "setting": "[2]; pH 5", "value": 10, "unit": "times by volume"}]}
